In data set [1] the target is T1, MRGPRX4 (Homo sapiens, UniProt Q96LA9). As to the kind of experiment: In vitro activation (agonism) of MRGPRX4, IP-One Gq HTRF assay. Format: cell-based. On the procedure:
Metabolites of heme (bilirubin, biliverdin, urobilin, urobilinogen, and stercobilin) were analyzed for in vitro activation of MRGPRX4. Cells were plated in a 384-well assay plate at 20,000 cells per well in 12 μL of Opti-MEM and kept in an incubator overnight. On the day of the assay, different agonists solubilized at 10 mM in 0.1% NaOH were added as a 10-point curve ([…] final top concentration with 1:3 serial dilutions) using a Tecan D300E digital dispenser. Agonists were diluted in assay buffer (final concentrations of 5.7 mM Tris-HCl, 43 mM NaCl, 50 mM LiCl, pH=8) and 2 μL of the appropriate agonist are added to each well. Plates were incubated in the dark for 1 h at 37° C. and then for 30 minutes at room temperature. IP-1 standards and HTRF detection reagents were added according to the IP-One—Gq Kit purchased from Cisbio (part number 62IPAPEJ) and incubated in the dark for 1 h at room temperature. The plate was read on a Molecular Devices SpectraMax iD5 plate reader. The HTRF ratio was calculated from the raw data and graphed using GraphPad Prism to calculate an IC50 value for each compound.
(In general: In TR-FRET formats the signal depends on donor and acceptor labels being close together.)

The test system of another data set is wild type mice. Nature of the data set: Mouse itch study, scratching bouts after subcutaneous pruritogen (SCLABA). Format: in vivo. To be noted: SC injection on the neck, 30 min recording, FIG. 2A-2B. On the procedure:
The ability of urobilin to induce itch in wild type mice was also tested. Typical mouse itch studies occurred as follows: C57B6J male mice were multiple-housed in a normal light cycle (6 am on; […]) under temperature and humidity-controlled conditions. The mice were handled and habituated to test chambers before testing, then placed in individual SCLABA test chambers. After 20 minutes, the mice were dosed PO with vehicle (saline, pH 7-8). After 30 minutes, the pruritogen of study ([…] in saline) or saline is given subcutaneously (SC) on the neck on the midline behind the ears. Video was recorded from the first pruritogen injection for 30 minutes using the SCLABA system. Scratching bouts were scored from SCLABA thumbnails using 12/45/85/100 waveform criteria. Group sizes were typically 9-10 animals per group.

In data set [2] the target is T1, MRGPRX4. Nature of the data set: Agonism of MRGPRX4 by bilirubin and urobilin samples after 24 h storage. Format: cell-based. Conditions: 24 h at room temperature under blue light; FIG. 4B.
Procedure: Samples were evaluated after 24 hours and the percent remaining of urobilin and bilirubin, relative to a time zero standard, were determined by measurement of the degradation of the analyte contained in the samples as determined by tandem mass spectroscopy (LC MS/MS). The samples (at 24 h) were also evaluated for their ability to agonize MRGPRX4.
Data set [3] can be described thus: Mouse pharmacokinetics study, 50 mg/kg oral gavage, plasma LC-MS/MS. Type of data set: in vivo. Conditions: male C57BL/6 mice, non-fasted. On the procedure:
Compounds were formulated in 5% DMSO, 5% Solutol, and […] phosphate buffered saline at a concentration of 5 mg/mL, and typically appeared as a fine homogenous suspension. Male C57BL/6 mice (n=3/compound) were administered a 50 mg/kg dose of each compound by oral gavage under a non-fasted condition. Blood samples were collected via the saphenous vein onto K2-EDTA at 0.25, 0.5, 1, 2, 4, 8 and 24 hours after dosing, and plasma was prepared and stored at […] until analysis. Plasma sample preparation for analysis was done by protein precipitation using acetonitrile (including Celecoxib as an internal standard) followed by centrifugation. Compound concentrations were determined in extracted plasma using LC-MS/MS relative to an 8 point standard curve covering the 1 to 3000 ng/mL range. Non-compartmental analysis using Phoenix WinNonlin was used to estimate pharmacokinetic parameters including area under the curve, clearance, and half-life. The administered dose was confirmed by analysis of residual dosing material by UPLC-UV relative to a single point calibration sample.

Data set [4] has as its target T1, MRGPRX4. Nature of the data set: MRGPR X4 antagonist activity, IP-One Gq HTRF assay in stably transfected HEK cells (versus agonist bilirubin, deoxycholic acid, conjugated bilirubin, urobilin, obeticholic acid or BAR502). The arrangement: expressed in transfected cells; host or cells: HEK cells, stably transfected. Conditions: for IC50: read-out: IC50 (10 μM BAR502) nM, MRGPRX4 antagonists versus 10 μM BAR502 agonist. Type of data set: cell-based. The procedure, abridged: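 Stably transfected HEK cells expressing human MRGPR X4, seeded overnight, given compounds as 10-point 1:3 curves from 10 uM final top, incubated 1 h at 37° C then 30 min at room temperature. IP-1 measured by IP-One Gq HTRF. IC50 derived from the HTRF ratio.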

Setting [5] is: versus 10 μM Bilirubin agonist, HEK cells expressing human MRGPR X4, read-out: MRGPR4 Antagonist Activity.
The mark [6] stands for this setting: versus 10 μM Bilirubin agonist, read-out: IC50 (Bilirubin agonist).
Where [7] appears, read: versus 20 μM deoxycholic acid, read-out: IC50 (Deoxycholic Acid agonist).
The mark [8] stands for this setting: versus 20 μM obeticholic acid, read-out: IC50 (Obeticholic Acid Agonist).
Setting [9] is: versus 50 μM urobilin, read-out: IC50 (Urobilin Agonist).
[10] abbreviates: versus 100 μM conjugated bilirubin, read-out: IC50 (Conjugated Bilirubin Agonist).

Each structure is given as a SMILES string. pEC50, pIC50: −log10 of the molar value. “Also recorded” adds a separate entry of the source. Read-outs that look alike come from different tables or passages of the source.

T1 sequence (Q96LA9 whole entry): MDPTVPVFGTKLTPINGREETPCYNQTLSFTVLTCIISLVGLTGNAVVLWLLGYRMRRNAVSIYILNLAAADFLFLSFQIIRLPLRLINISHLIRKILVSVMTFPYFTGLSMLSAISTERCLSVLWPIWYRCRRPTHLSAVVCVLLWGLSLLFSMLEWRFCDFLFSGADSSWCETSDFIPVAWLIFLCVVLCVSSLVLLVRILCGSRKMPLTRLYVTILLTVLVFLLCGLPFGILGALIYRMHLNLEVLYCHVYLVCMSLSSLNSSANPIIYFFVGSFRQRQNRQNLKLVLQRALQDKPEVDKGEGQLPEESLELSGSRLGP

`CCC1=C(C)C(CC2=N/C(=C\c3[nH]c(CC4NC(=O)C(C)=C4CC)c(C)c3CCC(=O)O)C(CCC(=O)O)=C2C)NC1=O` (centres unmarked) [Urobilin, urobilin]: on MRGPRX4 [1] (FIG. 1, compared with bilirubin), the “efficacy at activating MRGPRX4 relative to bilirubin” value is “at least 10 fold”. The “induction of scratch response in mice” value in the data set on wild type mice was “induced scratch response in mice in a dose dependent manner; also recorded: potent inducer of scratch response in mice”. In addition, the “agonist activity on MRGPRX4 after storage, relative to the other three groups” value on MRGPRX4 [2] is listed as “very little agonist activity”.
Consider `O=C(O)c1cccc(COc2ccc(Cl)cc2Cl)c1` [Compound 1-18], for which, in data set [3], the AUC came out at 376 μMxhr. Further, the highest level in data set [3] (Cmax) was 113 µM. Also, the T-1/2 in data set [3] was 4.2 h. For the same compound, the IC50 (as a rule, the concentration at which inhibition is half-maximal) on MRGPRX4 [4] came out at 48 nM. Besides, the pIC50 is greater than 7.00 on MRGPRX4 [4] (setting [5]); 7.24 at MRGPRX4 [4] (setting [6]); 6.89 on MRGPRX4 [4] (setting [7]); 7.40 on MRGPRX4 [4] (setting [8]); 6.64 at MRGPRX4 [4] (setting [9]); 6.89 on MRGPRX4 [4] (setting [10]).
Compound `O=C(O)c1cccc(COc2ccc(C(F)(F)F)cc2Cl)c1F` [Compound 1-55, 3-((2-chloro-4-(trifluoromethyl)phenoxy)methyl)-2-fluorobenzoic acid] showed an AUC in data set [3] of 2150 μMxhr. Further, the peak concentration (Cmax) – broadly, the highest concentration seen after dosing – in data set [3] was determined as 230 µM. The compound also displayed a T-1/2 in data set [3] of 11.2 h. Also, the IC50 on MRGPRX4 [4] was determined as 16 nM. Also, the pIC50 was greater than 7.00 on MRGPRX4 [4] (setting [5]); 8.22 on MRGPRX4 [4] (setting [6]); 7.66 on MRGPRX4 [4] (setting [7]); 7.96 at MRGPRX4 [4] (setting [8]); 7.64 at MRGPRX4 [4] (setting [9]); 7.85 at MRGPRX4 [4] (setting [10]).
For the compound `CC[C@H]1[C@@H](O)[C@@H]2[C@H](CC[C@]3(C)[C@@H]([C@H](C)CCO)CC[C@@H]23)[C@@]2(C)CC[C@@H](O)C[C@@H]12` [BAR502], at MRGPRX4 [1] (read-out: agonist activity against MRGPRX4), the pEC50 is 5.24.
`Cc1cc(COc2ccc(C(F)(F)F)cc2Cl)cc(C(=O)O)c1` [Compound 4-10, 3-((2-chloro-4-(trifluoromethyl)phenoxy)methyl)-5-methylbenzoic acid]: in data set [3], the AUC is reported as 974 μMxhr. In data set [3], this compound registered a Cmax of 260 µM. The T-1/2 in data set [3] turned out to be 4.6 h. In addition, the pIC50 at MRGPRX4 [4] (setting [5]) is greater than 7.00; at MRGPRX4 [4] (setting [6]) it was 7.80; on MRGPRX4 [4] (setting [7]), 7.66; at MRGPRX4 [4] (setting [8]), 7.82; at MRGPRX4 [4] (setting [9]), 7.46; on MRGPRX4 [4] (setting [10]), 7.68.
In data set [3], `CCc1cc(COc2ccc(C(F)(F)F)cc2Cl)nc(C(=O)O)c1` [Compound 42-3] yielded an AUC of 4700 μMxhr. Also, the peak level in data set [3] (Cmax) was 460 µM. This compound had a T-1/2 in data set [3] of 5.4 h. Also, the IC50 at MRGPRX4 [4] was 17 nM. In addition, the pIC50 is greater than 7.00 on MRGPRX4 [4] (setting [5]); 7.80 at MRGPRX4 [4] (setting [6]); 7.80 at MRGPRX4 [4] (setting [7]); 8.15 on MRGPRX4 [4] (setting [8]); 7.68 at MRGPRX4 [4] (setting [9]); 7.55 at MRGPRX4 [4] (setting [10]).
With `O=C(O)c1cccc(COc2ccc(C(F)(F)F)cc2Cl)n1` [Compound 1-56, 6-((2-chloro-4-(trifluoromethyl)phenoxy)methyl)picolinic acid], in data set [3], the AUC amounted to 880 μMxhr. In data set [3], this compound registered a Cmax of 162 µM. Also, the T-1/2 in data set [3] was 3.2 h. Further, the IC50 on MRGPRX4 [4] was found to be 16 nM. Further, the pIC50 at MRGPRX4 [4] (setting [5]) is greater than 7.00; at MRGPRX4 [4] (setting [6]) it was 7.55; at MRGPRX4 [4] (setting [7]) it was 7.52; on MRGPRX4 [4] (setting [8]), 7.62; on MRGPRX4 [4] (setting [9]) it was 7.68; at MRGPRX4 [4] (setting [10]), 7.49.

The values above are taken from patent US11840521B2, “Modulators of Mas-related G-protein receptor X4 and related products and methods” (Escient Pharmaceuticals, Inc., priority 2019, dated 2023).
